Experimental data published in patent publication US20110105500A1, “PYRAZINE SUBSTITUTED PURINES” (S*BIO Pte Ltd., priority 2008, published 2011).

Columns and labels:
[1] = target: T1, Full-length mTOR kinase (Homo sapiens, UniProt P42345); assay: mTOR Assay (phosphorylation of 4eBP1, [γ33P]-ATP filter plate); type: biochemical; conditions: 10 μM ATP, 1 hour at room temperature
T1 construct: Full-length mTOR kinase and His-tagged 4eBP1 were produced in-house; made in house
Method: Full-length mTOR kinase and His-tagged 4eBP1 were produced in-house. [γ^33P]-ATP was purchased from Amersham (GE Healthcare). All chemicals, unless otherwise stated, were from Sigma-Aldrich.
Phosphorylation assays were initially performed in a final volume of 20 μL in 384-well polypropylene plate (Greiner). Compounds were typically tested over the range from 100 μM to 0.006 μM, in 8 step dilutions, in duplicate. 10 μL/well of 2× Enzyme-Substrate solution (1.5 μg/mL mTOR, 40 μg/mL 4eBP1 in 1× assay buffer: 10 mM Hepes pH 7.5, 50 mM NaCl and 10 mM MnCl2) were first added to the sample plate containing 1 μL/well of test compound in neat DMSO. The reaction was initiated by adding 10 μL/well of 20 μM ATP solution (final assay concentration 10 μM ATP and 0.4 μCi/well of [γ^33P]-ATP). After 1 hour incubation at room temperature, the reaction was terminated with 40 μL/well of 20 mM EDTA/1 mM ATP solution.
50 μL/well of the stopped reaction mix was then transferred to 384-well MultiScreenHTS-PH filter plate (Millipore) pre-added with 50 μL/well of 1% phosphoric acid. The plate was washed 4 times with 120 μL/well of 0.5% phosphoric acid via vacuum filtration. Finally, 10 μL/well of Optiphase™ SuperMix liquid scintillation cocktail (Perkin Elmer) was added. After minimum 1 hour of incubation, counting was performed in a Wallac MicroBeta TriLux scintillation counter using coincidence counting mode with crosstalk correction. IC50 is defined as the concentration of compound required for 50% inhibition of kinase enzyme activity.

[2] = target: T2, Recombinant PI3K p110α/p85 (Homo sapiens, UniProt P42336); assay: PI3K Assay ([γ33P]ATP, PtdIns/PtdSer coated plates); type: biochemical; conditions: p110α/p85, 2 μM ATP, 1 hour at RT; read-out: IC50 (PI3Kα)
T2 construct: made in house
Method: Recombinant PI3K p110α/p85 was prepared in-house. Phosphatidylinositol (PtdIns), phosphotidylserine (PtdSer) and all other unspecified chemicals were purchased from Sigma-Aldrich. [γ33P]ATP and Optiphase scintillant were obtained from Perkin Elmer.
Assays were performed in a final assay volume of 25 μL in 384-well Maxisorp plates (Nunc). […] Maxisorp plates were coated with 20 μL/well of a 1:1 mixture of PtdIns and PtdSer [0.1 mg/mL each dissolved in chloroform:ethanol (3:7)] and left overnight in a fume hood at room temperature to dry.
The enzyme reaction was created by pipetting 5 μL/well of compound (in 2.5% DMSO), 10 μL/well of enzyme (0.5 μg/mL p110α+1 μg/mL p85), and 10 μL/well of 5 μM ATP with 5 μCi/mL [γ^33P]ATP in assay buffer (final concentrations: 0.2 μg/mL p110α, 2 μM ATP, 0.05 μCi/well [γ^33P]ATP in 1× assay buffer: 100 mM Tris-HCl pH 7.0, 200 mM NaCl, 8 mM MgCl2). The reaction was incubated for 1 hour at RT and terminated with 30 μL/well of 50 mM EDTA solution. The plate was then washed twice with TBS, dried, and added with 30 μL/well of scintillant before it was counted in a MicroBeta Trilux.

[3] = system: human breast cancer cell lines; conditions: cited from earlier work

T2 sequence (P42336 whole entry): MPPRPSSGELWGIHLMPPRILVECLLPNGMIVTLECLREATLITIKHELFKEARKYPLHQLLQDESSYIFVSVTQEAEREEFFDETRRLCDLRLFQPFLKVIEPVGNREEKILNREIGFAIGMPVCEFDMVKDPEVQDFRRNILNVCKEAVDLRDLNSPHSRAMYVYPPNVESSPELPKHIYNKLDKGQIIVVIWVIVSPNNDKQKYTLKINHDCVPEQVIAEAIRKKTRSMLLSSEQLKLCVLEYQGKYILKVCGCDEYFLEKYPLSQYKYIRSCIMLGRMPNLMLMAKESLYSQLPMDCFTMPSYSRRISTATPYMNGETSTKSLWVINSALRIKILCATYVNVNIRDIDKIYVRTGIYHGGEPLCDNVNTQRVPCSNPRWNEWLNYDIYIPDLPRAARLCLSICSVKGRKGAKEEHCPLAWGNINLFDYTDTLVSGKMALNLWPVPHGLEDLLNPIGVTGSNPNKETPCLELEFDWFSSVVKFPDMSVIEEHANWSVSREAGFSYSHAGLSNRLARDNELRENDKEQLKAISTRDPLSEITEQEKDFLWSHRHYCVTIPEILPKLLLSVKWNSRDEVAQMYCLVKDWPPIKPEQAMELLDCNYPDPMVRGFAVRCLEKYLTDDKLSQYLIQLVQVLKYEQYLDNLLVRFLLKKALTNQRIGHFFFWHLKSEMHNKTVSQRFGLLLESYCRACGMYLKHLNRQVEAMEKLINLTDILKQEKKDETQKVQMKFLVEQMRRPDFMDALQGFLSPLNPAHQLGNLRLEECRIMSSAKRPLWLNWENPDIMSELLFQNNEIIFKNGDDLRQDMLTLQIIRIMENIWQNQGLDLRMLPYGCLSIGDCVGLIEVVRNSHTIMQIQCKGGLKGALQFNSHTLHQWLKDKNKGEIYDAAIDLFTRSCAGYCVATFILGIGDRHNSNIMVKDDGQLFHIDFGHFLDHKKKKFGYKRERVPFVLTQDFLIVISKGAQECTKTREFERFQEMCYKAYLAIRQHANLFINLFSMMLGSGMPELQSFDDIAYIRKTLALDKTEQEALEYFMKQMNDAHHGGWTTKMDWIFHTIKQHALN
T2 sequence (P27986 whole entry partner): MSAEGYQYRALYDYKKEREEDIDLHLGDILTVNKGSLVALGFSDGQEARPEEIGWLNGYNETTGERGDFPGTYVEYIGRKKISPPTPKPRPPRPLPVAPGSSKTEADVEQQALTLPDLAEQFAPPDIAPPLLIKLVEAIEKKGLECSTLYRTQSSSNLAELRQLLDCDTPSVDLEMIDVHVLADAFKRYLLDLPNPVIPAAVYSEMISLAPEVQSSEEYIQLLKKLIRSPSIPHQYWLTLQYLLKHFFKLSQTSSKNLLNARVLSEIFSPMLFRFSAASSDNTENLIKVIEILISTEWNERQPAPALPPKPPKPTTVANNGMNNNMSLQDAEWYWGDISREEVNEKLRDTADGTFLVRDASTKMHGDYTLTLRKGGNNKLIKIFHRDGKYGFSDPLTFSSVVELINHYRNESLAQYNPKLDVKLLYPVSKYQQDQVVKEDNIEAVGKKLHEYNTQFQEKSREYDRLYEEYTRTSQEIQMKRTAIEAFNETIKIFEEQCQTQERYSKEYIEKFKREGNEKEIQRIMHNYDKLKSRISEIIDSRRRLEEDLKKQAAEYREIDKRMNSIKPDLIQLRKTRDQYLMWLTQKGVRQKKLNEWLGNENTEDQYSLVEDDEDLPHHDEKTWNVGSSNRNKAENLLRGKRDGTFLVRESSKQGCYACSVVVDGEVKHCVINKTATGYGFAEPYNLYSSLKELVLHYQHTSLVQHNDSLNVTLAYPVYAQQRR

| Compound | IC50 [1] [nM] | IC50 [2] [nM] | IC50 (sensitive lines) ([3]; six of eight human breast cancer cell lines) | IC50 ([3]; two resistant lines of eight human breast cancer cell lines) [nM] |
| --- | --- | --- | --- | --- |
| CCC(CC)n1cnc2c(-c3cnc(N)cn3)nc(N3CCOCC3)nc21 [Compound 4] | < 1000 | < 1000 | – | – |
| Nc1cnc(-c2nc(N3CCOCC3)nc3c2ncn3Cc2c(F)cccc2F)cn1 [Compound 7, 5-[9-(2,6-Difluoro-benzyl)-2-morpholin-4-yl-9H-purin-6-yl]-pyrazin-2-ylamine] | < 1000 | < 1000 | – | – |
| Cc1cccc(-n2cnc3c(-c4cnc(N)cn4)nc(N4CCOCC4)nc32)c1 [Compound 11, 5-(2-Morpholin-4-yl-9-m-tolyl-9H-purin-6-yl)-pyrazin-2-ylamine] | < 1000 | < 1000 | – | – |
| Nc1cnc(-c2nc(N3CCOCC3)nc3[nH]cnc23)cn1 [Compound 17] | < 1000 | < 1000 | – | – |
| Nc1cnc(-c2nc(N3CCOCC3)nc3c2ncn3-c2ccc3c(c2)OCO3)cn1 [Compound 14] | < 1000 | < 1000 | – | – |
| CC(C)C(C)n1cnc2c(-c3cnc(N)cn3)nc(N3CCOCC3)nc21 (stereo not shown) [Compound 2] | < 1000 | < 1000 | – | – |
| CC(C1CC1)n1cnc2c(-c3cnc(N)cn3)nc(N3CCOCC3)nc21 (stereo not shown) [Compound 9] | < 1000 | < 1000 | – | – |
| CC1CCCCC1n1cnc2c(-c3cnc(N)cn3)nc(N3CCOCC3)nc21 (stereo not shown) [Compound 25] | < 1000 | < 1000 | – | – |
| CCC(C)n1c(Br)nc2c(-c3cnc(N)cn3)nc(N3CCOCC3)nc21 (stereo not shown) [Compound 15, 5-(8-Bromo-9-sec-butyl-2-morpholin-4-yl-9H-purin-6-yl)-pyrazin-2-ylamine] | < 1000 | < 1000 | – | – |
| Nc1cnc(-c2nc(N3CCOCC3)nc3c2ncn3C2CCN(c3ccccc3)CC2)cn1 [Compound 16] | < 1000 | < 1000 | – | – |
| Nc1cnc(-c2nc(N3CCOCC3)nc3c2ncn3C2CCCC2)cn1 [Compound 5] | < 1000 | < 1000 | – | – |
| Nc1cnc(-c2nc(N3CCOCC3)nc3c2ncn3Cc2ccccc2)cn1 [Compound 6] | 1000 to 5000 | < 1000 | – | – |
| Nc1cnc(-c2nc(N3CCOCC3)nc3c2ncn3-c2ccccc2)cn1 [Compound 19] | < 1000 | < 1000 | – | – |
| CO[C@H]1C[C@@H]2CC[C@@H](C)[C@@](O)(O2)C(=O)C(=O)N2CCCC[C@H]2C(=O)O[C@H]([C@H](C)C[C@@H]2CC[C@@H](OC(=O)C(C)(CO)CO)[C@H](OC)C2)CC(=O)[C@H](C)/C=C(\C)[C@@H](O)[C@@H](OC)C(=O)[C@H](C)C[C@H](C)/C=C/C=C/C=C/1C [CCI-779] | – | – | low nanomolar range | > 1000 |
| Nc1cnc(-c2nc(N3CCOCC3)nc3c2ncn3C2CCC2)cn1 [Compound 24] | < 1000 | < 1000 | – | – |
| Nc1cnc(-c2nc(N3CCOCC3)nc3c2ncn3C2CCc3ccccc3C2)cn1 (stereo not shown) [Compound 13] | < 1000 | < 1000 | – | – |
| Nc1cnc(-c2nc(N3CCOCC3)nc3c2ncn3C2CCc3ccccc32)cn1 (stereo not shown) [Compound 23] | < 1000 | < 1000 | – | – |
| Nc1cnc(-c2nc(N3CCOCC3)nc3c2ncn3CC2CC2)cn1 [Compound 8] | < 1000 | < 1000 | – | – |
| CCC(C#N)n1cnc2c(-c3cnc(N)cn3)nc(N3CCOCC3)nc21 (stereo not shown) [Compound 3] | < 1000 | < 1000 | – | – |
| CCC(C)n1cnc2c(-c3cnc(N)cn3)nc(N3CCOCC3)nc21 (stereo not shown) [Compound 1, 5-(9-sec-Butyl-2-morpholin-4-yl-9H-purin-6-yl)-pyrazin-2-ylamine] | < 1000 | < 1000 | – | – |
| Nc1cnc(-c2nc(N3CCOCC3)nc3c2nc(Br)n3C2CCOC2)cn1 (stereo not shown) [Compound 20] | < 1000 | < 1000 | – | – |
| CC(C)(C)Cn1cnc2c(-c3cnc(N)cn3)nc(N3CCOCC3)nc21 [Compound 22] | < 1000 | < 1000 | – | – |
| Nc1cnc(-c2nc(N3CCOCC3)nc3c2ncn3C2CCOC2)cn1 (stereo not shown) [Compound 12] | < 1000 | < 1000 | – | – |
| Nc1cnc(-c2nc(N3CCOCC3)nc3c2ncn3C2CCN(c3ccccc3)C2)cn1 (stereo not shown) [Compound 18] | < 1000 | < 1000 | – | – |
| COCC(C)n1cnc2c(-c3cnc(N)cn3)nc(N3CCOCC3)nc21 (stereo not shown) [Compound 10] | < 1000 | < 1000 | – | – |
| Nc1cnc(-c2nc(N3CCOCC3)nc3c2ncn3C2Cc3ccccc3C2)cn1 [Compound 21] | < 1000 | < 1000 | – | – |
